Experimental data: patent US10517863B2, “Trilobine and its natural analogs for use as a drug” (PIERRE FABRE MEDICAMENT, priority 2015, dated 2019)

Tests used:
[1] = test system: luciferase reporter under the control of a methylated CMV promoter in leukemia KG-1 cells; test: CMV-luc reexpression (luciferase reporter) in KG-1 cells; assay type: cell-based, human; conditions: 24 hour incubation, fold induction vs DMSO, mean ± standard error
Protocol: Aiming at identifying new DNMT inhibitors, plant extract samples were tested for their ability to reactivate gene expression upon use of an integrated luciferase reporter system under the control of a methylated CMV promoter in leukemia KG-1 cells which inhibits its expression (CMV-luc assay reported in following Table). […] The extract was fractionated by preparative HPLC. Identification of the active components was accomplished by HRMS and NMR spectroscopy. The pure compounds isolated from the extract through bio-guided fractionation are trilobine and bisbenzylisoquinoline analogue products. The active compounds were then further evaluated for their ability to inhibit DNMTs in vitro and DNA methylation in cancer cells.
KG-1 cells were stably transfected with the firefly luciferase reporter gene (luc+ from pGL3; Promega) under the control of the cytomegalovirus (CMV) promoter (from pEGFP-N1; Clontech Laboratories Inc.) partially methylated (50%). 20,000 cells per well were seeded in a 96-well plate. After 24 hour incubation in the presence of the test compound or solvant (DMSO), the induction of the promoter was measured by quantification of the luciferase signal with the Brite-lite assay system (PerkinElmer) according to the manufacturer's protocol. The luminescence was measured on an EnVision multilabel plate reader (PerkinElmer), and the data are expressed as the fold induction as compared with the DMSO control. The mean of three experiments and the standard error is reported.

[2] = molecular target: T1, human C-terminal DNMT3A (a.a. 623-908) (Homo sapiens, UniProt Q9Y6K1); test: hDNMT3A restriction-based fluorescence assay; assay type: biochemical; conditions: for inhibition at 10 µM / inhibition at 32 µM: read-out: hDNMT 3A inhibition, Inhibition (%); for EC50: brackets: 95% confidence interval, read-out: hDNMT 3A inhibition EC50
T1 construct: The human C-terminal DNMT3A (a.a. 623-908); made in house
T1 sequence (Q9Y6K1 627-912): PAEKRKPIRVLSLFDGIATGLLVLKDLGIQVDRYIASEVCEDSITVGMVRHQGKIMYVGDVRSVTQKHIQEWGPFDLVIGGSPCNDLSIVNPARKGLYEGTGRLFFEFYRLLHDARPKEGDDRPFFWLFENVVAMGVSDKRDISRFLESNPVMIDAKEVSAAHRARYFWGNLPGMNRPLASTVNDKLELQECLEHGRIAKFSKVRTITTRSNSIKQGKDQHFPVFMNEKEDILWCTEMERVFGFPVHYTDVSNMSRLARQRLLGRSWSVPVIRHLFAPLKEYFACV
Source text: hDNMT3A enzyme inhibition was adapted from the restriction-based fluorescence assay protocol as described in the literature (Ceccaldi et al. ChemBioChem 2011, 12, 1337-1345). Briefly, a 5′-labelled biotin oligonucleotide is hybridized to its complementary strand labelled with 6-carboxyfluorescein at the 3′-end into a 384 well microplate (black Optiplates; Perkin Elmer) pre-coated with avidin. The duplex contains a unique CpG site overlapping with a restriction site of a methylation sensitive restriction enzyme. The human C-terminal DNMT3A (a.a. 623-908), produced as described in the literature (Gros et al. Nucl. Acids Res. 2013, 41(19):e185), was added in each well (200 ng/well) and mixed with the chemical compounds at desired concentrations and freshly prepared AdoMet (20 μM final concentration) to start the reaction in a total volume of 50 μL. After 1 hour incubation at 37° C. each well were washed three times with PBS, Tween-20 0.05%, NaCl (500 mM) and three more times with PBST. Specific fluorescent signals were detected with the methylation-sensitive restriction enzyme HpyCH4IV (NEB) as described and measured on a Perkin Elmer Envision detector. The percentage of inhibition is reported. The formula used to calculate the percentage of inhibition is [(X−Y)/X]×100, where X is the signal determined in the absence of the inhibitor and Y is the signal obtained in the presence of the inhibitor. The concentration at which 50% of efficacy of inhibition is observed (EC50) was determined by analysis of a concentration range of the tested compound in triplicates. The non-linear regression fittings with sigmoidal dose-response (variable slope) were performed with GraphPad Prism 4.03 (GraphPad Software).

[3] = molecular target: T2, His-DNMT1 (182 kDa, human) (Homo sapiens, UniProt P26358); test: hDNMT1 assay ([methyl-3H] SAM Flashplate); assay type: biochemical; conditions: read-out: hDNMT1 percentage of inhibition
T2 construct: His; made in house
T2 sequence (P26358 whole entry): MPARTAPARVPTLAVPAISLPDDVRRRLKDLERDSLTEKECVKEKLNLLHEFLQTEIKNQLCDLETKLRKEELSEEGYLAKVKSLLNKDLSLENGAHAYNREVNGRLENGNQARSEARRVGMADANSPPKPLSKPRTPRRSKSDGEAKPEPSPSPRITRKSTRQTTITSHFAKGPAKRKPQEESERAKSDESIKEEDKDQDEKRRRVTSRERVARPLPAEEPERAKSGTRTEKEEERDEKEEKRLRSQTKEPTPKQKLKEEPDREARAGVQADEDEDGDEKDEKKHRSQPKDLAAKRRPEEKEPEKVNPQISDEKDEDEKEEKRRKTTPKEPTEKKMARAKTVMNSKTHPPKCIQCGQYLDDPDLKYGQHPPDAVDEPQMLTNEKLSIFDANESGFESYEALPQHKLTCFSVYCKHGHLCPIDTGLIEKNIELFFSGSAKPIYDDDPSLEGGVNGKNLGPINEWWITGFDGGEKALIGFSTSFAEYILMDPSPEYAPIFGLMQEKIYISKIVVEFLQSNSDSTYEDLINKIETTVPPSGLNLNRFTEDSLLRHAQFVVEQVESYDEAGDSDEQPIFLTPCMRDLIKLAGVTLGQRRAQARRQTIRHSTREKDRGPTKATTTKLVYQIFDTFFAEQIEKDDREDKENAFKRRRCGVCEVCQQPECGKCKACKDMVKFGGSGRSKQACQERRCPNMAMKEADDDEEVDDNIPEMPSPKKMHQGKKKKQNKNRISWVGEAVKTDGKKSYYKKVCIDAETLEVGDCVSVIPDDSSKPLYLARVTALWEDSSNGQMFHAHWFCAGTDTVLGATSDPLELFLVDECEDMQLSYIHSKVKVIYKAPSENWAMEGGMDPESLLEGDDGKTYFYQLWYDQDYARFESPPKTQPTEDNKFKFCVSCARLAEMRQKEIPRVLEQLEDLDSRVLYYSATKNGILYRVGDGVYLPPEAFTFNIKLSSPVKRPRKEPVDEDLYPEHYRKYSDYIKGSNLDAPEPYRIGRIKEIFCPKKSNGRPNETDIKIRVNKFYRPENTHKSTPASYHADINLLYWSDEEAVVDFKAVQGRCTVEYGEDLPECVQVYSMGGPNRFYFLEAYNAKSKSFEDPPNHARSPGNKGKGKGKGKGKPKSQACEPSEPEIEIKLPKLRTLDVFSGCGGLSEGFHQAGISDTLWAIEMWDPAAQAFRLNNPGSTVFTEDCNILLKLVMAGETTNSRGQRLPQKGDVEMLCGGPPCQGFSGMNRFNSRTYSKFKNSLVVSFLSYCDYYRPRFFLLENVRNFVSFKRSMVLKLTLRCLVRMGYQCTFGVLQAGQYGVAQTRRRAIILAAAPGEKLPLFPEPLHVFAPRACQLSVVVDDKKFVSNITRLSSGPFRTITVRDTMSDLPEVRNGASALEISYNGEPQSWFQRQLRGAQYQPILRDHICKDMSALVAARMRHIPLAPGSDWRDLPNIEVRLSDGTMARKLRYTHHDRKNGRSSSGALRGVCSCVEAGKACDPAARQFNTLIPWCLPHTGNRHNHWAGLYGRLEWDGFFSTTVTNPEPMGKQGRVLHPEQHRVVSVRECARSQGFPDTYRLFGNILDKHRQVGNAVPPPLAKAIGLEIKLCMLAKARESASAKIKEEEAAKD
Protocol: His-DNMT1 (182 kDa, human) was cloned, expressed and purified as described in the literature (Halby et al. ChemBioChem 2012, 13, 157-165). The reaction was performed in a […] total reaction volume in low volume NBS™ 384-well microplates (Corning), containing the tested compound (up to 1% DMSO), 1 μM of a SAM/[methyl-^3H] SAM (3 TBq/mmol, PerkinElmer) mix in a ratio of 3-to-1 (isotopic dilution 1*:3), 0.3 μM of biotinylated hemimethylated DNA duplex (5′-GATmCGCmCGATGmCGmCGAATmCGmCGATmCGATGmCGAT-3′ and BIOT-5′-[…]-3′), and 90 nM of DNMT1 in methylation buffer (20 mM HEPES pH 7.2, 1 mM EDTA, 50 mM KCl, 25 μg/mL BSA). The reaction was incubated at 37° C. for 2 hours. 8 μL, are then transferred into a streptavidin 96-well scintillant coated Flashplate™ (PerkinElmer) containing 190 μL of 20 μM SAH in 50 mM Tris-HCl pH 7.4. The Flashplate™ was agitated at room temperature for 1 hour and read in 200 μL of 50 mM Tris-HCl pH 7.4 on TopCount NXT (PerkinElmer). The percentage of inhibition is reported. The formula used to calculate the percentage of inhibition is [(X−Y)/X]×100, where X is the signal determined in the absence of the inhibitor and Y is the signal obtained in the presence of the inhibitor.

Row | SMILES | Reactivation fold of luciferase gene reporter in KG-1 CMV-Luc ([1]; 0.1 μM) [fold] | Reactivation fold of luciferase gene reporter in KG-1 CMV-Luc ([1]; 0.32 μM) [fold] | Reactivation fold of luciferase gene reporter in KG-1 CMV-Luc ([1]; 0.5 μM) [fold] | Reactivation fold of luciferase gene reporter in KG-1 CMV-Luc ([1]; 1 μM) [fold] | Reactivation fold of luciferase gene reporter in KG-1 CMV-Luc ([1]; 3.2 μM) [fold] | Reactivation fold of luciferase gene reporter in KG-1 CMV-Luc ([1]; 5 μM) [fold] | Reactivation fold of luciferase gene reporter in KG-1 CMV-Luc ([1]; 10 μM) | inhibition at 10 µM [2] [%] | inhibition at 32 µM [2] [%] | EC50 [2] [µM] | inhibition at 32 µM [3] [%]
1 | COc1ccc2cc1Oc1ccc(cc1)C[C@H]1c3c(cc(OC)c4c3Oc3cc5c(cc3O4)CCN(C)[C@H]5C2)CCN1C [Compound 2, Isotrilobine] | 1.0 ± 0.1 | 2.4 ± 1.4 | 2.8 ± 0.8 | 3.6 ± 2.9 | 2.4 ± 0.7 | 3.1 ± 0.6 | 6.1 ± 0.5 fold | 56 | 76 |  | 
2 | COc1ccc2cc1Oc1ccc(cc1)C[C@H]1c3c(cc(OC)c4c3Oc3cc5c(cc3O4)CCN[C@H]5C2)CCN1C [Compound 3, O-Methylcocsoline] |  |  |  |  |  |  |  | 95 | 100 |  | 
3 | COc1cc2c3c4c1Oc1cc5c(cc1O4)[C@H](Cc1ccc(O)c(c1)Oc1ccc(cc1)C[C@@H]3N(C)CC2)N(C)CC5 [Compound 4, Cocsuline] |  |  |  |  |  |  |  | 23 | 66 | > 10 | 
4 | COc1cc2c3c4c1Oc1cc5c(cc1O4)[C@H](Cc1ccc(O)c(c1)Oc1ccc(cc1)C[C@@H]3NCC2)N(C)CC5 [Compound 5, 2′-Norcocsuline] | 1.0 ± 0.2 | 2.3 ± 0.7 | 2.1 ± 0.6 | 2.6 ± 1.6 | 3.9 ± 0.4 | 5.1 ± 0.1 | cyt. tox. | 73 | 88 |  | 
5 | COc1cc2c3c4c1Oc1cc5c(cc1O4)[C@H](Cc1ccc(O)c(c1)Oc1ccc(cc1)C[C@@H]3N(C)CC2)NCC5 [Compound 6, Cocsoline] |  |  |  |  |  |  |  | 37 | 91 | > 10 | 
6 | COc1ccc2cc1Oc1ccc(cc1)C[C@@H]1NCCc3cc(OC)c4c(c31)Oc1cc3c(cc1O4)CCN[C@H]3C2 [Compound 7, Nortrilobine] | 1.1 ± 0.2 | 1.7 ± 0.5 | 1.9 ± 1.3 | 2.6 ± 1.8 | 5.4 ± 2.6 | 12.3 ± 1.2 | cyt. tox.. | 83 | 94 |  | 99
7 | COc1cc2c3c4c1Oc1cc5c(cc1O4)C(=NCC5)Cc1ccc(O)c(c1)Oc1ccc(cc1)C[C@@H]3N(C)CC2 [Compound 8, 1,2-Dehydroapateline] |  |  |  |  |  |  |  | 41 | 68 | > 10 | 
8 | COc1ccc2cc1Oc1ccc(cc1)C[C@H]1c3c(cc(OC)c4c3Oc3cc5c(cc3O4)CCN=C5C2)CCN1C [Compound 9, 1,2-Dehydrotelobine] |  |  |  |  |  |  |  | 37 | 63 | > 10 | 
